This is an account of results in patent US5068251A, “Lipoxygenase inhibiting compounds” (Abbott Laboratories, priority 1988, dated 1991).

In one experiment the test system is leukotriene biosynthesis. The experiment can be described thus: Inhibition of leukotriene biosynthesis in vivo, rat peritoneal anaphylaxis model. Particulars: 40 mg/kg i.p., 30 minutes prior to antigen challenge, peritoneal fluids collected 15 minutes after challenge, versus mean of control group. The method, then: Inhibition of the biosynthesis of leukotrienes in vivo after intraperitoneal administration of compound was determined using a rat peritoneal anaphylaxis model. In this model rats were injected intraperitoneally (ip) with rabbit antibody to bovine serum albumin (BSA) and three hours later injected ip with BSA to induce an antgen-antibody response. Rats were sacrificed 15 minutes after this challenge and the peritoneal fluids were collected and analyzed for leukotriene levels. Test compound was injected intraperitoneal 30 minutes prior to the antigen challenge. Percent inhibition values were determined by comparing the treatment group to the mean of the control group.

In the next experiment the target is T1, 5-lipoxygenase (Rattus norvegicus, UniProt P12527).
T1 construct: 20,000×g supernatant from homogenized RBL-1 cells; endogenous in cells; host or cells: RBL-1 cells (20,000×g supernatant of the homogenate)
T1 sequence (P12527 1-673): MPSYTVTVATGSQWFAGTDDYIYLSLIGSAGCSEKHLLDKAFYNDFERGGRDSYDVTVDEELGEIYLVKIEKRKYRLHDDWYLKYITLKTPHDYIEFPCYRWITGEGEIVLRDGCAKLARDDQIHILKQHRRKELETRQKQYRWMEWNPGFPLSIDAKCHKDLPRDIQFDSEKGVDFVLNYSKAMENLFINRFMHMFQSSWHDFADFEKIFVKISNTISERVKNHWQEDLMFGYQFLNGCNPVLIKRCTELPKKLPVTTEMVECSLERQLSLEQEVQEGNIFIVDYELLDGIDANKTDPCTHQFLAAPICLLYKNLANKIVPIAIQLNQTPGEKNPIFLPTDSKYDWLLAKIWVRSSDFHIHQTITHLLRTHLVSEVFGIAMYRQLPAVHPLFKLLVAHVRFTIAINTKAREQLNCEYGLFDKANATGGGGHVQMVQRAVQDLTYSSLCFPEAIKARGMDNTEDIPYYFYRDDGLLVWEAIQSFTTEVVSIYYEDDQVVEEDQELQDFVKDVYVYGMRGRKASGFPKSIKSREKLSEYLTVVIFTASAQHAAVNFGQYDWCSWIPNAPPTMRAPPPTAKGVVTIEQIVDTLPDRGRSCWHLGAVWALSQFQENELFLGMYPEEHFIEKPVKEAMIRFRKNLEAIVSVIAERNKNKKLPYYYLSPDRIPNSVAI
The experiment can be described thus: Inhibition of 5-lipoxygenase activity in 20,000×g supernatant from homogenized RBL-1 cells. Particulars: linear regression of percentage inhibition versus log inhibitor concentration, read-out: IC50 (In vitro 5-lipoxygenase inhibitory potency). In kind it is biochemical. The method, then:
Inhibition of 5-lipoxygenase activity was determined using the 20,000×g supernatant from homogenized RBL-1 cells in a similar manner as that described by Dyer and coworkers (Dyer, R. D.; Haviv, F.; Hanel, A. M.; Bornemier, D. A.; Carter, G. W. Fed. Proc , Fed. Am. Soc. Exp. Biol. 1984, 43, 1462A).

In the case of `COc1ccc2c(c1)c(CNC(=O)N(C)O)c(C)n2C(=O)c1ccc(Cl)cc1` [Example 1, N'-hydroxy-N'-methyl-N-(4'-chlorobenzoyl-5-methoxy-2-methyl-3-indolyl)methyl urea], the “inhibition of leukotriene biosynthesis in vivo” value with leukotriene biosynthesis came to 81%.

In general, IC50 refers to the concentration that gives 50% inhibition. For `CC(C)Cc1ccc(C(C)NC(=O)NO)cc1` (stereo not drawn) [Example 3, N'-hydroxy-N-[l-(4-(2'methylpropyl)phenyl)ethyl]urea], the IC50 on 5-lipoxygenase was 2900 nM.

As for `CC(C)Cc1ccc(C(C)CNC(=O)NO)cc1` (stereo not drawn) [Example 4, N'-hydroxy-N-[2-(4-(2'-methylpropyl)phenyl)]urea], the IC50 at 5-lipoxygenase came out at 1900 nM.
